In US10065950B2, “Substituted thiazoles as HIV integrase inhibitors” (Japan Tobacco Inc., priority 2010, dated 2018) one finds IC50 data, which are given here for 47 molecules.

The target in this assay is HIV-1 pNL4-3 integrase (Human immunodeficiency virus type 1 group M subtype B (isolate NY5) (HIV-1), UniProt P12497). Nature of the assay: Determination of enzyme (HIV integrase) inhibitory activity. The format is biochemical. Conditions: calculated from inhibition rate (fluorescence). How it is done: The following explains evaluation methods of the HIV integrase inhibitory activity of the compound of the present invention.
A full-length gene sequence (Accession No.: M19921) of HIV-1 pNL4-3 integrase was inserted into restriction enzyme Nde I and Xho I sites of plasmid pET21a(+) (manufactured by Novagen) to construct an integrase expression vector pET21a-IN-Wild type.
Escherichia coli recombinant BL21(DE3) transformed with plasmid pET21a-IN-Wild type obtained in (i) was shake cultured at 30° C. in a liquid medium containing ampicillin. When the culture reached the logarithmic growth phase, isopropyl-β-D-thiogalactopyranoside was added to promote expression of integrase gene. The culture was continued for 5 hr to promote accumulation of the integrase protein. The recombinant E. coli was collected in pellets by centrifugal separation and preserved at −80° C.
This Escherichia coli was suspended in Lysis buffer (50 mM Tris-HCl (pH 7.6), 10 mM MgCl2, 5 mM DTT), and disrupted by repeating treatments of pressurization and depressurization, and insoluble fraction was collected by centrifugation at 4° C., 18,000 rpm for 60 min. This was suspended in Lysis buffer containing a protease inhibitor, […] and 10 mM CHAPS were added, and the mixture was stirred at 4° C. for 30 min. Water-soluble fraction was collected by centrifugation at 4° C., 9,000 rpm for 30 min. The obtained fraction was diluted with a column buffer (50 mM Tris-HCl (pH 7.6), 1 mM DTT, 10% Glycerol, 10 mM CHAPS) to 5-fold, and the mixture was applied to heparin column (HiPrep 16/10 Heparin FF column: manufactured by GE Healthcare Bio-Sciences). Using a column buffer containing 1M NaCl, a protein was eluted with 0-1M NaCl concentration gradient, and an eluted fraction containing an integrase protein was collected. The obtained fraction was diluted 5-fold with a column buffer (50 mM Tris-HCl (pH 7.6), 1 mM DTT, 10% Glycerol, 10 mM CHAPS), and the mixture was applied to cation exchange column (Mono-S column: manufactured by GE Healthcare Bio-Sciences). Using a column buffer containing 1M NaCl, a protein was eluted with 0-1M NaCl concentration gradient, and an eluted fraction containing an integrase protein was collected. The obtained fractions of the integrase protein were collected, and preserved at −80° C.
The following DNA synthesized by FASMAC was dissolved in TE buffer (10 mM Tris-hydrochloric acid (pH 8.0), 1 mM EDTA) and mixed with donor DNA, target DNA, and each complementary strand (+ and − strands) to 1 μM. The mixture was heated at 95° C. for 5 min, 80° C. for 10 min, 70° C. for 10 min, 60° C. for 10 min, 50° C. for 10 min and 40° C. for 10 min and kept at 25° C. to give a double stranded DNA, which was used for the test.
Donor DNA (+strand having biotin attached to the 5′ terminal)
Target DNA (+, − strands both having digoxigenin attached to the 3′ terminal)
The donor DNA was diluted with TE buffer to 20 nM, of which 50 μL was added to each well of streptavidin-coated black plate (manufactured by PIAS Corporation) and allowed to adsorb at 37° C. for 20 min. The plate was washed with phosphate buffer (Dulbecco's PBS, Sanko Junyaku Co., Ltd.) containing 0.1% Tween 20 and phosphate buffer. Then, an enzyme reaction mixture (70 μL), a test substance (10 μL) diluted with the enzyme reaction mixture and 0.75 μM integrase protein (10 μL) were added to each well and the mixture was reacted at 37° C. for 60 min. composition of enzyme reaction mixture: 30 mM MOPS (3-morpholinopropanesulfonic acid), 5 mM magnesium chloride, 3 mM DTT (dithiothreitol), 0.1 mg/mL BSA (bovine serum albumin), 5% glycerol, 10% DMSO (dimethyl sulfoxide), 0.01% Tween 20.
Then, 25 nM target DNA (10 μL) was added, and the mixture was reacted at 37° C. for 20 min and washed with phosphate buffer containing 0.1% Tween 20 to stop the reaction. […]

Regarding `COC[C@H]1Cn2cc(-c3nnc(Cc4ccc(F)cc4)s3)c(=O)c(O)c2C(=O)N1C(C)C` [Example 95], the concentration for half-maximal inhibition (IC50) (usually the point on the concentration scale where inhibition reaches its midpoint) is 9.5 nM.

On to `CN(C)C(=O)CC1CN(C2CC2)C(=O)c2c(O)c(=O)c(-c3ncc(Cc4ccc(F)cc4F)s3)cn21` (centres unmarked) [Example 164], for which the half-inhibitory concentration (IC50) was 6.5 nM.

For `C[C@@H]1Cn2cc(-c3nnc(Cc4ccc(F)cc4)s3)c(=O)c(O)c2C(=O)N1CC1CC1` [Example 279], the IC50 was 6.3 nM.

For `CCN1C(=O)c2c(O)c(=O)c(-c3nnc(Cc4ccc(F)cc4F)s3)cn2CC1(COC)COC` [Example 319], the half-maximal inhibitory concentration (IC50) is 5.8 nM.

`CCN1C[C@@H](COCCOC)n2cc(-c3nnc(Cc4ccc(F)cc4)s3)c(=O)c(O)c2C1=O` [Example 128]: the IC50 is 19 nM.

Take `COCC1CN(CC(C)C)C(=O)c2c(O)c(=O)c(-c3nnc(Cc4ccc(F)cc4F)s3)cn21` (centres unmarked) [Example 63]: the half-maximal inhibitory concentration (IC50) is 8.3 nM.

For `COC[C@@H]1[C@H](C)n2cc(-c3nnc(Cc4ccc(F)cc4)s3)c(=O)c(O)c2C(=O)N1C(C)C` [Example 232], the 50% inhibitory concentration (IC50) was 15 nM.

`CC(C)NC(=O)CC1CN(C(C)C)C(=O)c2c(O)c(=O)c(-c3ncc(Cc4ccc(F)cc4F)s3)cn21` (centres unmarked) [Example 36]: the concentration for half-maximal inhibition (IC50) is 13 nM.

Consider `COCCOC[C@H]1CN(C(C)C)C(=O)c2c(O)c(=O)c(-c3nnc(Cc4ccc(F)cc4F)s3)cn21` [Example 44], for which the half-inhibitory concentration (IC50) was 8.1 nM.

For `COCCOC[C@H]1CN(CC(C)C)C(=O)c2c(O)c(=O)c(-c3ncc(Cc4ccc(F)cc4F)s3)cn21` [Example 57], the half-inhibitory concentration (IC50) is 11 nM.

`CC(C)N1CC(C)(C(=O)N2CCCCC2)n2cc(-c3ncc(Cc4ccc(F)cc4F)s3)c(=O)c(O)c2C1=O` (centres unmarked) [Example 38]: the IC50 is 12 nM.

On to `CC(C)NC(=O)C1CN(C(C)C)C(=O)c2c(O)c(=O)c(-c3ncc(Cc4ccc(F)cc4F)s3)cn21` (centres unmarked) [Example 31], for which the IC50 is 8.3 nM.

Turning to `CC(C)N1C[C@@](C)(C(=O)NCC2CC2)n2cc(-c3ncc(Cc4ccc(F)cc4)s3)c(=O)c(O)c2C1=O` [Example 246], the IC50 is 8.4 nM.

Turning to `CO[C@H](C)[C@@H]1CN(C(C)C)C(=O)c2c(O)c(=O)c(-c3ncc(Cc4ccc(F)cc4)s3)cn21` [Example 387], the IC50 was 11 nM.

For the molecule `CCN(C)C(=O)CC1CN(C(C)C)C(=O)c2c(O)c(=O)c(-c3ncc(Cc4ccc(F)cc4F)s3)cn21` (centres unmarked) [Example 76], the half-maximal inhibitory concentration (IC50) was 8.3 nM.

For `COC[C@H]1Cn2cc(-c3nnc(Cc4ccc(F)cc4F)s3)c(=O)c(O)c2C(=O)N1C1CCC1` [Example 98], the concentration for half-maximal inhibition (IC50) was 7.5 nM.

In the case of `CC(C)N1CC(CN)n2cc(-c3ncc(Cc4ccc(F)cc4F)s3)c(=O)c(O)c2C1=O` (centres unmarked) [Example 66], the 50% inhibitory concentration (IC50) is 6.4 nM.

In the case of `CC(C)N1C[C@@](C)(C(=O)N2CCC2)n2cc(-c3ncc(Cc4ccc(F)cc4)s3)c(=O)c(O)c2C1=O` [Example 223], the IC50 was 12 nM.

In the case of `CCN1C(=O)c2c(O)c(=O)c(-c3nnc(Cc4ccc(F)cc4)s3)cn2CC1(C)C` [Example 355], the IC50 was 6.6 nM.

`COC1CN(C(=O)[C@@]2(C)CN([C@H](C)C3CC3)C(=O)c3c(O)c(=O)c(-c4ncc(Cc5ccc(F)cc5)s4)cn32)C1` [Example 281]: the IC50 is 16 nM.

Turning to `CCN1C[C@@](C)(C(=O)N(C)C)n2cc(-c3ncc(Cc4ccc(F)cc4)s3)c(=O)c(O)c2C1=O` [Example 248], the half-maximal inhibitory concentration (IC50) is 14 nM.

On to `CCN1C[C@@H](COCCOC)n2cc(-c3nnc(Cc4ccc(F)cc4F)s3)c(=O)c(O)c2C1=O` [Example 127], for which the IC50 was 14 nM.

`CC(=O)NCC1CN(C(C)C)C(=O)c2c(O)c(=O)c(-c3ncc(Cc4ccc(F)cc4F)s3)cn21` (centres unmarked) [Example 67]: the IC50 was 7.6 nM.

As to `CN(C)C(=O)[C@@]1(C)CN(C)C(=O)c2c(O)c(=O)c(-c3ncc(Cc4ccc(F)cc4F)s3)cn21` [Example 336], the IC50 was 7.2 nM.

Regarding `CC(C)N1CC(CC(=O)O)n2cc(-c3ncc(Cc4ccc(F)cc4F)s3)c(=O)c(O)c2C1=O` (centres unmarked) [Example 33], the half-inhibitory concentration (IC50) was 6.2 nM.

For `COC[C@H]1CN(CC2CC2)C(=O)c2c(O)c(=O)c(-c3nnc(Cc4ccc(F)cc4F)s3)cn21` [Example 117], the IC50 was 9.4 nM.

Consider `CC(=O)NC[C@H]1Cn2cc(-c3nnc(Cc4ccc(F)cc4F)s3)c(=O)c(O)c2C(=O)N1C(C)C` [Example 140], for which the half-maximal inhibitory concentration (IC50) was 5.8 nM.

On to `CCC(C)N1C(=O)c2c(O)c(=O)c(-c3nnc(Cc4ccc(F)cc4F)s3)cn2C[C@H]1COC` (some centres unmarked) [Example 146], for which the IC50 is 5.9 nM.

On to `CC(C)NC(=O)C1(C)CN(C(C)C)C(=O)c2c(O)c(=O)c(-c3ncc(Cc4ccc(F)cc4)s3)cn21` (centres unmarked) [Example 106], for which the half-inhibitory concentration (IC50) was 20 nM.

Regarding `COCC1Cn2cc(-c3ncc(Cc4ccc(F)cc4F)s3)c(=O)c(O)c2C(=O)N1C(C)C` (centres unmarked) [Example 61], the IC50 is 6.6 nM.

With `COC[C@@H]1Cn2cc(-c3nnc(Cc4ccc(F)cc4)s3)c(=O)c(O)c2C(=O)N1C(C)C1CC1` (some centres unmarked) [Example 206], the IC50 was 5.9 nM.

As for `CC[C@@H](C)N1C[C@H](COC)n2cc(-c3nnc(Cc4ccc(F)cc4F)s3)c(=O)c(O)c2C1=O` [Example 147], the IC50 is 8.3 nM.

Turning to `CCN1C(=O)c2c(O)c(=O)c(-c3nnc(Cc4ccc(F)cc4)s3)cn2C[C@@]1(C)COC` [Example 270], the IC50 is 9.5 nM.

As for `COC1CN(C(=O)[C@@]2(C)CN(CC3CC3)C(=O)c3c(O)c(=O)c(-c4ncc(Cc5ccc(F)cc5)s4)cn32)C1` [Example 262], the IC50 is 10 nM.

`CCN1C(=O)c2c(O)c(=O)c(-c3nnc(Cc4ccc(F)cc4)s3)cn2C[C@H]1C(C)C` [Example 286]: the IC50 was 7.8 nM.

With `CCNC(=O)[C@@]1(C)CN(C(C)C)C(=O)c2c(O)c(=O)c(-c3ncc(Cc4ccc(F)cc4)s3)cn21` [Example 239], the IC50 was 16 nM.

For `CC(C)N1C(=O)c2c(O)c(=O)c(-c3nnc(Cc4ccc(F)cc4)s3)cn2C[C@H]1CO` [Example 354], the 50% inhibitory concentration (IC50) is 8 nM.

As for `CC(C)N1C[C@](C)(C(=O)N2CCC2)n2cc(-c3nnc(Cc4ccc(F)cc4)s3)c(=O)c(O)c2C1=O` [Example 2], the IC50 was 13 nM.

Regarding `CC(C)N1C(=O)c2c(O)c(=O)c(-c3nnc(Cc4ccc(F)cc4)s3)cn2C[C@@H]1C` [Example 233], the IC50 is 6.4 nM.

On to `CC(=O)CC1CN(C(C)C)C(=O)c2c(O)c(=O)c(-c3ncc(Cc4ccc(F)cc4F)s3)cn21` (centres unmarked) [Example 151], for which the IC50 was 5.4 nM.

On to `CCNC(=O)C1CN(C(C)C)C(=O)c2c(O)c(=O)c(-c3ncc(Cc4ccc(F)cc4F)s3)cn21` (centres unmarked) [Example 25], for which the IC50 is 11 nM.

As to `CCN1C[C@H](COCCOC)n2cc(-c3nnc(Cc4ccc(F)cc4F)s3)c(=O)c(O)c2C1=O` [Example 125], the IC50 was 11 nM.

In the case of `CC(C)N1C[C@](C)(C(=O)N2CCC(=O)C2)n2cc(-c3ncc(Cc4ccc(F)cc4)s3)c(=O)c(O)c2C1=O` [Example 290], the half-inhibitory concentration (IC50) is 14 nM.

Consider `COC[C@H]1CN(C2CCC2)C(=O)c2c(O)c(=O)c(-c3nnc(Cc4ccc(F)cc4)s3)cn21` [Example 92], for which the half-inhibitory concentration (IC50) is 8.7 nM.

Consider `CC(=O)N(C)CC1CN(C(C)C)C(=O)c2c(O)c(=O)c(-c3ncc(Cc4ccc(F)cc4F)s3)cn21` (centres unmarked) [Example 80], for which the 50% inhibitory concentration (IC50) was 9.8 nM.

`CO[C@@H](C)COC[C@H]1CN(C2CC2)C(=O)c2c(O)c(=O)c(-c3nnc(Cc4ccc(F)cc4)s3)cn21` [Example 384]: the IC50 is 12 nM.

As to `CCN1C[C@H](COC)n2cc(-c3nnc(Cc4ccc(F)cc4F)s3)c(=O)c(O)c2C1=O` [Example 97], the IC50 was 6.6 nM.
